Source: patent US20030068615A1, “Polypeptides that bind HIV gp120 and related nucleic acids, antibodies, compositions, and methods of use” (priority 1999, published 2003)
Several values for one entry are separate records, joined by “and”; a condition that tells them apart may be missing. Equal values may be shown once. Read-outs that look alike come from different tables or passages of the source.

Target: HIV-1LAI envelope gp120 (Human immunodeficiency virus type 1 group M subtype B, UniProt P03377)
Type: binding
Conditions: for Relative % of Control: mean of two syntheses and binding experiments ± average deviation, wild-type = 100%; for Counts per 20′ Average-background: CCR5 18-mer scan; for Binding Results For Window Length (counts bound-background), 9 / Binding Results For Window Length (counts bound-background), 12 / Binding Results For Window Length (counts bound-background), 15 / Binding Results For Window Length (counts bound-background), 18: STRL33 amino terminus; for Binding Results For Window Length (counts bound-background), 9: 9-mer starting at the first residue of the printed sequence; for Binding Results For Window Length (counts bound-background), 12: 12-mer starting at the first residue of the printed sequence; for Binding Results For Window Length (counts bound-background), 15: 15-mer starting at the first residue of the printed sequence; for Binding Results For Window Length (counts bound-background), 18: 18-mer starting at the first residue of the printed sequence; for number of radioactive decays (counts) counted: human CD4 21-mer scan, empty control 2075
[1] = STRL33 18-mer scan, background subtracted, first of two count columns
[2] = STRL33 18-mer scan, background subtracted, second of two count columns
[3] = Panel D, 9-mers and 12-mers of CD4, empty control […]
[4] = CXCR4 18-mer scan, background subtracted, empty control 0
[5] = CXCR4 18-mer scan, empty control 412
[6] = Panel F, sequential alanine replacements of CD4 polypeptides, duplicate series, empty control 569
[7] = radiolabeled HIV-1LAI gp120, background subtracted
[8] = Panel E, 9-mers and 12-mers of CD4, empty control 571
[9] = Panel C, 15-mers and 18-mers of CD4, empty control 556
[10] = Panel B, 15-mers and 18-mers of CD4, empty control 575
[11] = Panel G, alanine replacements and serial truncations (Z) of CD4 polypeptides, empty control 580
[12] = Panel A, 21-mers of CD4, empty control 515 and 617

MDYAVSSPIYDINYYTSE [CCR5 (1-18) variant Q4A]
Relative % of Control (CCR5 (1-18) alanine variants): 104 ± 7% | percentage of binding of mutant polypeptide compared to wild-type polypeptide, gp120 (CCR5 alanine mutant peptide, radiolabeled HIV-1LAI gp120): 104%

LLIWVISLLVSLPQIIYG [STRL33 segment 153-170]
radioactive counts recorded in twenty minutes [1]: 42.5 counts | radioactive counts recorded in twenty minutes [2]: 75.5 counts

EDSDTYICE
COUNTS of radiolabeled gp120 retained [3]: 650 counts

LLQGQSLTL
COUNTS of radiolabeled gp120 retained [3]: 568 counts

LGAKFKTSAQHALTSVSR
radioactive counts recorded in twenty minutes [4]: 200 counts | radioactive counts recorded in twenty minutes [5]: 612 counts

THLLAGQSLTLTLES
COUNTS of radiolabeled gp120 retained [6]: 4578 counts and 2956 counts

KEPCFREENANFNKIFLP [CXCR4 segment 25-42]
radioactive counts recorded in twenty minutes [4]: 252 counts | radioactive counts recorded in twenty minutes [5]: 664 counts

MIVYFLFWAPYNIVLLLN [CCR5 segment 241-]
Counts per 20′ Average-background [7]: 214 counts per 20′

TANSDTHLL
COUNTS of radiolabeled gp120 retained [3]: 554 counts

EEVQLLVFGLTANAD
COUNTS of radiolabeled gp120 retained [6]: 17928 counts and 17684 counts

QVEFSFPLAFTV
COUNTS of radiolabeled gp120 retained [8]: 1636 counts

EFSFPLAFTVEKLTGSGE
COUNTS of radiolabeled gp120 retained [9]: 668 counts

DIGCLPYLGVSHQWKSSE
radioactive counts recorded in twenty minutes [1]: 17.5 counts | radioactive counts recorded in twenty minutes [2]: 78.5 counts

DTYICEVEDQKEEVQ
COUNTS of radiolabeled gp120 retained [10]: 1071 counts

TVVLATQMTLGFFLPLLT [STRL33 segment 189-206]
radioactive counts recorded in twenty minutes [1]: 2327.5 counts | radioactive counts recorded in twenty minutes [2]: 2389.5 counts

FPLAFTVEKLTG
COUNTS of radiolabeled gp120 retained [8]: 622 counts

PLAFTVEKLTGS
COUNTS of radiolabeled gp120 retained [8]: 528 counts

DSSQEEHQAFLQFSKVFL [STRL33 segment 17-34]
radioactive counts recorded in twenty minutes [1]: 869.5 counts | radioactive counts recorded in twenty minutes [2]: 2152.5 counts

EQVEFSFPL
COUNTS of radiolabeled gp120 retained [8]: 1032 counts

TALLQGQSLTLTLES
COUNTS of radiolabeled gp120 retained [6]: 6931 counts and 5012 counts

TANSDTHLLQGQ
COUNTS of radiolabeled gp120 retained [3]: 549 counts

EEVQALVFGLTANSD
COUNTS of radiolabeled gp120 retained [6]: 11258 counts and 12603 counts

YGFSSFNDSSQEEHQAFL
Binding Results For Window Length (counts bound-background), 9 (background subtracted): 345 counts | Binding Results For Window Length (counts bound-background), 12 (background subtracted): 745 counts | Binding Results For Window Length (counts bound-background), 15 (background subtracted): 645 counts | Binding Results For Window Length (counts bound-background), 18 (background subtracted): 1138 counts

QEFFGLNNCSSSNRLDQA [CCR5 segment 261-]
Counts per 20′ Average-background [7]: 63 counts per 20′

KASSIVYKK
COUNTS of radiolabeled gp120 retained [8]: 498 counts

VEFSFPLAFTVE
COUNTS of radiolabeled gp120 retained [8]: 518 counts

GEQVEFAFPLAFTVE
COUNTS of radiolabeled gp120 retained [11]: 21681 counts and 20072 counts

DQKEEVQLLVFGLTANSD
COUNTS of radiolabeled gp120 retained [10]: 3317 counts

AYLRACLNPVLYAFVSLK [STRL33 segment 277-294]
radioactive counts recorded in twenty minutes [1]: 1802.5 counts | radioactive counts recorded in twenty minutes [2]: 1849.5 counts

FSSFNDSSQEEHQAFLQF
Binding Results For Window Length (counts bound-background), 9 (background subtracted): 249 counts | Binding Results For Window Length (counts bound-background), 12 (background subtracted): 403 counts | Binding Results For Window Length (counts bound-background), 15 (background subtracted): 361 counts | Binding Results For Window Length (counts bound-background), 18 (background subtracted): 3608 counts

NLKIEDSDT
COUNTS of radiolabeled gp120 retained [3]: 512 counts

YICEVEDQKEEVQLL
COUNTS of radiolabeled gp120 retained [10]: 1064 counts

LVFGLTANSDTHLLQGQS
COUNTS of radiolabeled gp120 retained [10]: 564 counts

GEQVEFSFPLAFTVE
COUNTS of radiolabeled gp120 retained [9]: 4656 counts | COUNTS of radiolabeled gp120 retained [11]: 18856 counts and 18867 counts and 20691 counts and 17662 counts and 19190 counts and 18219 counts

WTCTVLQNQKKVEFKIDI
COUNTS of radiolabeled gp120 retained [9]: 588 counts

KVEFKIDIV
COUNTS of radiolabeled gp120 retained [8]: 555 counts

THALQGQSLTLTLES
COUNTS of radiolabeled gp120 retained [6]: 7683 counts and 5059 counts

IRSTHWEYYAMTSFHYTI
radioactive counts recorded in twenty minutes [1]: 1571.5 counts | radioactive counts recorded in twenty minutes [2]: 1807.5 counts

VEDQKEEVQ
COUNTS of radiolabeled gp120 retained [3]: 521 counts

FWKNFQTLKIVILGLVLP [CCR5 segment 189-]
Counts per 20′ Average-background [7]: 40 counts per 20′

YAGIHEWVFGQVMCKSLL [STRL33 segment 89-106]
radioactive counts recorded in twenty minutes [1]: 5911.5 counts | radioactive counts recorded in twenty minutes [2]: 6245.5 counts

NQKKVEFKIDIVVLAFQK
COUNTS of radiolabeled gp120 retained [9]: 889 counts

LQNQKKVEFKIDIVVLAF
COUNTS of radiolabeled gp120 retained [9]: 938 counts

LQNQKKVEFKID
COUNTS of radiolabeled gp120 retained [8]: 508 counts

FTVEKLTGSGEL
COUNTS of radiolabeled gp120 retained [8]: 530 counts

HWEYYAMTSFHYTIMVTE [STRL33 segment 257-274]
radioactive counts recorded in twenty minutes [1]: 2040.5 counts | radioactive counts recorded in twenty minutes [2]: 3065.5 counts

KLSHSKGHQKRKALKTTV [CXCR4 segment 225-242]
radioactive counts recorded in twenty minutes [4]: 130 counts | radioactive counts recorded in twenty minutes [5]: 542 counts

GSGDYDSMKEPCFREENA [CXCR4 segment 17-34]
radioactive counts recorded in twenty minutes [4]: −28 counts | radioactive counts recorded in twenty minutes [5]: 384 counts

FSFPLAFTVEKLTGSGELWWQ
COUNTS of radiolabeled gp120 retained [12]: 4163 counts | number of radioactive decays (counts) counted: 9673 counts

KKVEFKIDIVVLAFQKAS
COUNTS of radiolabeled gp120 retained [9]: 912 counts

SIVYKKEGEQVEFSF
COUNTS of radiolabeled gp120 retained [9]: 651 counts

EAVQLLVFGLTANSD
COUNTS of radiolabeled gp120 retained [6]: 14220 counts and 13213 counts

MEGISIYTSDNYTEEMGA
Relative % of Control (CXCR4 (1-18) alanine variants): 79 ± 1%

MCKSLLGIYTINFYTSML
radioactive counts recorded in twenty minutes [1]: 1505.5 counts | radioactive counts recorded in twenty minutes [2]: 1283.5 counts

QGNFPLIIKNLKIED
COUNTS of radiolabeled gp120 retained [10]: 509 counts

MEGISIYTSDNATEEMGS
Relative % of Control (CXCR4 (1-18) alanine variants): 28 ± 2%

EGEQVEFSFPLA
COUNTS of radiolabeled gp120 retained [8]: 1456 counts

FIFGFVGNMLVILILINC [CCR5 segment 41-58]
Counts per 20′ Average-background [7]: 343 counts per 20′

LVSLPQIIYGNVFNLDKL
radioactive counts recorded in twenty minutes [1]: 91.5 counts | radioactive counts recorded in twenty minutes [2]: −15.5 counts

EDQKEEVQLLVFGLTANS
COUNTS of radiolabeled gp120 retained [10]: 3416 counts

VLQNQKKVEFKIDIV
COUNTS of radiolabeled gp120 retained [9]: 605 counts

KIDIVVLAFQKASSIVYK
COUNTS of radiolabeled gp120 retained [9]: 779 counts

VFVCGLVGNSLVLVISIF [STRL33 segment 41-58]
radioactive counts recorded in twenty minutes [1]: 570.5 counts | radioactive counts recorded in twenty minutes [2]: 284.5 counts

FIGLGIFFCVRCRHRRRQAER
number of radioactive decays (counts) counted: 1900 counts

IFLVMAVFLLTQMPFNLM [STRL33 segment 233-250]
radioactive counts recorded in twenty minutes [1]: 386.5 counts | radioactive counts recorded in twenty minutes [2]: 772.5 counts

YKKEGEQVE
COUNTS of radiolabeled gp120 retained [8]: 518 counts

AKRFCKCCSIFQQEAPER [CCR5 segment 317-]
Counts per 20′ Average-background [7]: 64 counts per 20′

NSIYLVISIFYHKLQSLT [STRL33 segment 49-66]
radioactive counts recorded in twenty minutes [1]: 1255.5 counts | radioactive counts recorded in twenty minutes [2]: 1378.5 counts

SSIVYKKEGEQVEFSFPLAFT
COUNTS of radiolabeled gp120 retained [12]: 28068 counts

NCKRLKSMTDIYLLNLAI [CCR5 segment 57-74]
Counts per 20′ Average-background [7]: 25 counts per 20′

QKKVEFKID
COUNTS of radiolabeled gp120 retained [8]: 575 counts

PFRELLLVLQLALLPAATQGK [human CD4, printed 16-26]
number of radioactive decays (counts) counted: 4356 counts

LVFGLTANSDTHLLQ
COUNTS of radiolabeled gp120 retained [10]: 609 counts

MYLVVFVCGLVGNSLVLV [STRL33 segment 37-54]
radioactive counts recorded in twenty minutes [1]: 168.5 counts | radioactive counts recorded in twenty minutes [2]: 235.5 counts

IVVLAFQKASSIVYKKEGEQV
COUNTS of radiolabeled gp120 retained [12]: 646 counts
